Experimental data taken from US20170190671A1, “BIS(ARYL)CATECHOL DERIVATIVES AS HERBICIDES” (E I DU PONT DE NEMOURS AND COMPANY, priority 2014, published 2017).

Key:
Format in all cases: in vivo
[1] = system: velvetleaf (Abutilon theophrasti); test: Test A preemergence; conditions: for Plant response rating, Velvetleaf: 0 to 100 scale; for Velvetleaf plant response rating: 0 to 100 scale (0 no effect, 100 complete control)
Outline: (§1)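 Injury scores run from 0, no effect, to 100, complete control, judged by eye against untreated plants roughly 10 days after treatment. Chemicals carried a surfactant in a non-phytotoxic solvent and went onto loam–sand soil preemergence or onto one- to two-leaf seedlings postemergence.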

[2] = system: wheat (Triticum aestivum); test: Test A preemergence; conditions: for Plant response rating, Wheat: 0 to 100 scale; for Wheat plant response rating: 0 to 100 scale (0 no effect, 100 complete control)
Outline: as §1

[3] = system: morningglory (Ipomoea spp.); test: Test A preemergence; conditions: for Plant response rating, Morningglory: 0 to 100 scale; for Morningglory plant response rating: 0 to 100 scale (0 no effect, 100 complete control)
Outline: as §1

corn (Zea mays) = test: Test A preemergence; conditions: 0 to 100 scale
Outline: as §1

[4] = system: large (Lg) crabgrass (Digitaria sanguinalis); test: Test A preemergence; conditions: for Plant response rating, Crabgrass, Large: 0 to 100 scale; for Crabgrass, Large plant response rating: 0 to 100 scale (0 no effect, 100 complete control)
Outline: as §1

[5] = system: Surinam grass (Brachiaria decumbens); test: Test E preemergence; conditions: scale 0 to 100
Outline: (§2)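 Seeds were sown in silt loam soil and sprayed preemergence with test chemicals in a non-phytotoxic solvent mixture containing surfactant. For postemergence, plants at the 1- to 4-leaf stage (2 to 18 cm) in peat-based potting medium were treated. After 14 to 21 days in a greenhouse, injury was rated visually against controls, 0 (no effect) to 100 (complete control).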

[6] = system: johnsongrass (Sorghum halepense); test: Test E preemergence; conditions: scale 0 to 100
Outline: as §2

kochia (Kochia scoparia) = test: Test E preemergence; conditions: scale 0 to 100
Outline: as §2

[7] = system: field bindweed (Convolvulus arvensis); test: Test E preemergence; conditions: scale 0 to 100
Outline: as §2

[8] = system: wild poinsettia (Euphorbia heterophylla); test: Test E preemergence; conditions: scale 0 to 100
Outline: as §2

[9] = system: palmer pigweed (Amaranthus palmeri); test: Test E preemergence; conditions: scale 0 to 100
Outline: as §2

[10] = system: waterhemp_RES1 (ALS & Triazine resistant common waterhemp, Amaranthus rudis); test: Test E postemergence; conditions: scale 0 to 100
Excerpt: (§3) Seeds of plant species selected from corn (Zea mays), soybean (Glycine max), velvetleaf (Abutilon theophrasti), cocklebur (common cocklebur, Xanthium strumarium), lambsquarters (Chenopodium album), wild poinsettia (Euphorbia heterophylla), palmer pigweed (Amaranthus palmeri), waterhemp (common waterhemp, Amaranthus rudis), surinam grass (Brachiaria decumbens), large (Lg) crabgrass (Digitaria sanguinalis), Brazilian crabgrass (Digitaria horizontalis), fall panicum (Panicum dichotomiflorum), giant foxtail (Setaria faberii), green foxtail (Setaria viridis), goosegrass (Eleusine indica), johnsongrass (Sorghum halepense), ragweed (common ragweed, Ambrosia elatior), barnyardgrass (Echinochloa crus-galli), sandbur (southern sandbur, Cenchrus echinatus), arrowleaf sida (Sida rhombifolia), Italian ryegrass (Lolium multiflorum), dayflower (Virginia (VA) dayflower, Commelina virginica), field bindweed (Convolvulus arvensis), morningglory (Ipomoea coccinea), nightshade (eastern black nightshade, Solanum ptycanthum), kochia (Kochia scoparia), yellow nutsedge (Cyperus esculentus), horseweed (Conyza canadensis), and hairy beggarticks (Bidens pilosa), were planted into a silt loam soil and treated preemergence with test chemicals formulated in a non-phytotoxic solvent mixture which included a surfactant.
(§4) At the same time, plants from these crop and weed species and also waterhemp_RES1, (ALS & Triazine resistant common waterhemp, Amaranthus rudis), and waterhemp_RES2, (ALS & HPPD resistant common waterhemp, Amaranthus rudis) were planted in pots containing Redi-Earth® planting medium (Scotts Company, 14111 Scottslawn Road, Marysville, Ohio 43041) comprising spaghnum peat moss, vermiculite, wetting agent and starter nutrients were treated with postemergence applications of test chemicals formulated in the same manner. Plants ranged in height from 2 to 18 cm for postemergence treatments (1- to 4-leaf stage). Treated plants and controls were maintained in a greenhouse for 14 to 21 days, after which time all species were compared to controls and visually evaluated. Plant response ratings, summarized in Table E, are based on a scale of 0 to 100 where 0 is no effect and 100 is complete control. A dash (-) response means no test result.

[11] = system: hairy beggarticks (Bidens pilosa); test: Test E postemergence; conditions: scale 0 to 100
Excerpt: as §3, §4

[12] = system: field bindweed (Convolvulus arvensis); test: Test E postemergence; conditions: scale 0 to 100
Excerpt: as §3, §4

[13] = system: wild poinsettia (Euphorbia heterophylla); test: Test E postemergence; conditions: scale 0 to 100
Excerpt: as §3, §4

[14] = system: Brazilian crabgrass (Digitaria horizontalis); test: Test E postemergence; conditions: scale 0 to 100
Excerpt: as §3, §4

[15] = system: dayflower (Virginia (VA) dayflower, Commelina virginica); test: Test E postemergence; conditions: scale 0 to 100
Excerpt: as §3, §4

SMILES: N#Cc1cccc(Oc2ncc(Cl)cn2)c1Oc1ncc(Cl)cn1 [Compound 3, 2,3-bis[(5-chloro-2-pyrimidinyl)oxy]benzonitrile]
- Plant response rating, Velvetleaf ([1]; 125 g ai/ha): 100
- Plant response rating, Velvetleaf ([1]; 500 g ai/ha): 100
- Plant response rating, Wheat ([2]; 125 g ai/ha): 30
- Plant response rating, Wheat ([2]; 500 g ai/ha): 80
- Plant response rating, Morningglory ([3]; 125 g ai/ha): 100
- Plant response rating, Morningglory ([3]; 500 g ai/ha): 100
- Plant response rating, Corn (corn (Zea mays); 125 g ai/ha): 60
- Plant response rating, Corn (corn (Zea mays); 500 g ai/ha): 70
- Plant response rating, Crabgrass, Large ([4]; 125 g ai/ha): 100
- Plant response rating, Crabgrass, Large ([4]; 500 g ai/ha): 100

SMILES: Clc1cnc(Oc2cccc(Br)c2Oc2ncc(Cl)cn2)nc1 [Compound 19, 2,2′-[[3-bromo-1,2-phenylene]bis(oxy)]bis[5-chloropyrimidine]]
- Plant response rating, Surinam Grass ([5]; 16 g ai/ha): 0
- Plant response rating, Surinam Grass ([5]; 31 g ai/ha): 0
- Plant response rating, Surinam Grass ([5]; 62 g ai/ha): 10
- Plant response rating, Surinam Grass ([5]; 125 g ai/ha): 10
- Plant response rating, Johnsongrass ([6]; 16 g ai/ha): 0
- Plant response rating, Johnsongrass ([6]; 31 g ai/ha): 0
- Plant response rating, Johnsongrass ([6]; 62 g ai/ha): 50
- Plant response rating, Johnsongrass ([6]; 125 g ai/ha): 100
- Plant response rating, Kochia (kochia (Kochia scoparia); 16 g ai/ha): 35
- Plant response rating, Kochia (kochia (Kochia scoparia); 31 g ai/ha): 75
- Plant response rating, Kochia (kochia (Kochia scoparia); 62 g ai/ha): 98
- Plant response rating, Kochia (kochia (Kochia scoparia); 125 g ai/ha): 100
- Plant response rating, Field Bindweed ([7]; 16 g ai/ha): 0
- Plant response rating, Field Bindweed ([7]; 31 g ai/ha): 0
- Plant response rating, Field Bindweed ([7]; 62 g ai/ha): 0
- Plant response rating, Field Bindweed ([7]; 125 g ai/ha): 10
- Plant response rating, Poinsettia, Wild ([8]; 16 g ai/ha): 0
- Plant response rating, Poinsettia, Wild ([8]; 31 g ai/ha): 0
- Plant response rating, Poinsettia, Wild ([8]; 62 g ai/ha): 15
- Plant response rating, Poinsettia, Wild ([8]; 125 g ai/ha): 70
- Plant response rating, Pigweed, Palmer ([9]; 16 g ai/ha): 0
- Plant response rating, Pigweed, Palmer ([9]; 31 g ai/ha): 70
- Plant response rating, Pigweed, Palmer ([9]; 62 g ai/ha): 100
- Plant response rating, Pigweed, Palmer ([9]; 125 g ai/ha): 100
- Velvetleaf plant response rating ([1]; 125 g ai/ha): 80
- Plant response rating, Velvetleaf ([1]; 500 g ai/ha): 90
- Wheat plant response rating ([2]; 125 g ai/ha): 40
- Plant response rating, Wheat ([2]; 500 g ai/ha): 70
- Morningglory plant response rating ([3]; 125 g ai/ha): 70
- Plant response rating, Morningglory ([3]; 500 g ai/ha): 100
- Plant response rating, Corn (corn (Zea mays); 125 g ai/ha): 10
- Plant response rating, Corn (corn (Zea mays); 500 g ai/ha): 60
- Crabgrass, Large plant response rating ([4]; 125 g ai/ha): 100
- Plant response rating, Crabgrass, Large ([4]; 500 g ai/ha): 100

SMILES: Fc1cccc(Oc2ncc(Cl)cn2)c1Oc1ncc(Cl)cn1 [Compound 21, 2,2′-[[3-fluoro-1,2-phenylene]bis(oxy)]bis[5-chloropyrimidine]]
- Plant response rating, Surinam Grass ([5]; 16 g ai/ha): 0
- Plant response rating, Surinam Grass ([5]; 31 g ai/ha): 10
- Plant response rating, Surinam Grass ([5]; 62 g ai/ha): 0
- Plant response rating, Surinam Grass ([5]; 125 g ai/ha): 50
- Plant response rating, Johnsongrass ([6]; 16 g ai/ha): 0
- Plant response rating, Johnsongrass ([6]; 31 g ai/ha): 30
- Plant response rating, Johnsongrass ([6]; 62 g ai/ha): 65
- Plant response rating, Johnsongrass ([6]; 125 g ai/ha): 100
- Plant response rating, Kochia (kochia (Kochia scoparia); 16 g ai/ha): 20
- Plant response rating, Kochia (kochia (Kochia scoparia); 31 g ai/ha): 50
- Plant response rating, Kochia (kochia (Kochia scoparia); 62 g ai/ha): 75
- Plant response rating, Kochia (kochia (Kochia scoparia); 125 g ai/ha): 100
- Plant response rating, Field Bindweed ([7]; 16 g ai/ha): 0
- Plant response rating, Field Bindweed ([7]; 31 g ai/ha): 0
- Plant response rating, Field Bindweed ([7]; 62 g ai/ha): 15
- Plant response rating, Field Bindweed ([7]; 125 g ai/ha): 40
- Plant response rating, Poinsettia, Wild ([8]; 16 g ai/ha): 0
- Plant response rating, Poinsettia, Wild ([8]; 31 g ai/ha): 10
- Plant response rating, Poinsettia, Wild ([8]; 62 g ai/ha): 50
- Plant response rating, Poinsettia, Wild ([8]; 125 g ai/ha): 60
- Plant response rating, Pigweed, Palmer ([9]; 16 g ai/ha): 0
- Plant response rating, Pigweed, Palmer ([9]; 31 g ai/ha): 60
- Plant response rating, Pigweed, Palmer ([9]; 62 g ai/ha): 100
- Plant response rating, Pigweed, Palmer ([9]; 125 g ai/ha): 100
- Velvetleaf plant response rating ([1]; 125 g ai/ha): 80
- Plant response rating, Velvetleaf ([1]; 500 g ai/ha): 90
- Wheat plant response rating ([2]; 125 g ai/ha): 60
- Plant response rating, Wheat ([2]; 500 g ai/ha): 60
- Morningglory plant response rating ([3]; 125 g ai/ha): 90
- Plant response rating, Morningglory ([3]; 500 g ai/ha): 100
- Plant response rating, Corn (corn (Zea mays); 125 g ai/ha): 40
- Plant response rating, Corn (corn (Zea mays); 500 g ai/ha): 60
- Crabgrass, Large plant response rating ([4]; 125 g ai/ha): 100
- Plant response rating, Crabgrass, Large ([4]; 500 g ai/ha): 100

SMILES: N#Cc1cccc(Oc2ncc(Cl)cn2)c1Oc1ccc(Cl)cc1 [Compound 36]
- Plant response rating, Waterhemp_RES1 ([10]; 16 g ai/ha): 98
- Plant response rating, Waterhemp_RES1 ([10]; 31 g ai/ha): 95
- Plant response rating, Waterhemp_RES1 ([10]; 62 g ai/ha): 95
- Plant response rating, Waterhemp_RES1 ([10]; 125 g ai/ha): 100
- Plant response rating, Beggarticks ([11]; 16 g ai/ha): 30
- Plant response rating, Beggarticks ([11]; 31 g ai/ha): 35
- Plant response rating, Beggarticks ([11]; 62 g ai/ha): 30
- Plant response rating, Beggarticks ([11]; 125 g ai/ha): 40
- Plant response rating, Field Bindweed ([12]; 16 g ai/ha): 40
- Plant response rating, Field Bindweed ([12]; 31 g ai/ha): 50
- Plant response rating, Field Bindweed ([12]; 62 g ai/ha): 65
- Plant response rating, Field Bindweed ([12]; 125 g ai/ha): 85
- Plant response rating, Poinsettia, Wild ([13]; 16 g ai/ha): 50
- Plant response rating, Poinsettia, Wild ([13]; 31 g ai/ha): 60
- Plant response rating, Poinsettia, Wild ([13]; 62 g ai/ha): 70
- Plant response rating, Poinsettia, Wild ([13]; 125 g ai/ha): 90
- Plant response rating, Crabgrass, Brazil ([14]; 16 g ai/ha): 20
- Plant response rating, Crabgrass, Brazil ([14]; 31 g ai/ha): 20
- Plant response rating, Crabgrass, Brazil ([14]; 62 g ai/ha): 30
- Plant response rating, Crabgrass, Brazil ([14]; 125 g ai/ha): 30
- Plant response rating, Dayflower, VA ([15]; 16 g ai/ha): 20
- Plant response rating, Dayflower, VA ([15]; 31 g ai/ha): 50
- Plant response rating, Dayflower, VA ([15]; 62 g ai/ha): 60
- Plant response rating, Dayflower, VA ([15]; 125 g ai/ha): 70
